According to ChEMBL document CHEMBL1150800, “Multiple-dose escalation study of the safety, pharmacokinetics, and biologic activity of oral AMD070, a selective CXCR4 receptor inhibitor, in human subjects” (Antimicrob Agents Chemother, 2007):
Converted amounts (≈) assume the structure as drawn.

System: Human immunodeficiency virus 1
Test: Antiviral activity against HIV1 NL4.3 in human MT4 cells
Assay type: functional, organism-based
Conditions: Human immunodeficiency virus 1, MT4

c1cc(CN2CCCNCCNCCCNCC2)ccc1CN1CCCNCCNCCCNCC1 [PLERIXAFOR]
IC50: 1.5 ng/mL (≈ 2.98 nM)
